Molecular target: T1, Human eIF4E (Homo sapiens, UniProt P06730)
T1 construct: Human eIF4E (aa 28-217) with a C-terminal His-tag; made in house
Assay: Human eIF4E/4G2 binding assay (TR-FRET)
Details: eIF4E (aa 28-217) with biotin labeled 4G2 peptide
Protocol: Human eIF4E (aa 28-217) with a C-terminal His-tag was expressed in E. coli in inclusion bodies. The protein was solubilized with 8 M urea and purified under denaturing conditions using nickel-charged HisTrap HP columns (GE Healthcare). The purified protein was then refolded by diluting in 20 mM Hepes pH 7.0, 0.5 M NaCl, 1 mM DTT, 1 mM EDTA, 0.5 M arginine plus 6 M urea, and then dialyzing overnight into the same buffer without the urea. The protein was further dialyzed into 20 mM Hepes, pH 6.5, 50 mM NaCl, 1 mM EDTA, 1 mM DTT, and concentrated using Hitrap SP sepharose FF columns (GE Healthcare). The concentrated protein was dialyzed into 20 mM Hepes, pH 7.0, 0.5M NaCl, 5 mM DTT and 10% glycerol, and stored at −80° C. until use.
Test compounds (3.43 mM stock in DMSO) were diluted 2-fold in series in DMSO (10 concentration points). Compound solutions (1.2 μl/well) were added into black 384-well polypropylene microplates (Matrix, Thermal Scientific). Twenty-two microliters per well of Assay Buffer (50 mM NaPi, pH 6.5, 50 mM KCl, 1 mM DTT and 0.5 mg/ml gamma globulin) and eight microliters per well of 82.5 nM purified eIF4E in Assay Buffer were added. The samples were incubated at room temperature (20-23° C.) for 15 min. Biotin labeled 4G2 peptide (Ac-Lys-Gln-Tyr-Asp-Arg-Glu-Phe-Leu-Leu-Asp-Phe-Gln-Phe-Met-Pro-Lys(Aha-Bio)-NH2, 1.75 μM stock in DMSO) was diluted to 0.14 μM in Assay Buffer (without DTT) and 5 μl/well was added. The samples were incubated at room temperature for 15 min. Five microliters per well of 6.4 nM Eu-streptavidin (Eu-SA, Perkin Elmer) and 80 nM Allophycocyanin (APC)-anti His antibody (Columbia Biosciences) in Assay Buffer (without DTT) were then added and the samples were incubated at room temperature for 20 min.
Assay signals were monitored by reading excitation at 340 nm and emission fluorescence at 615 nm and 665 nm on an Envision reader (Perkin Elmer). Normalized TR-FRET (time-resolved fluorescence resonance energy transfer) assay signal (Rn) was calculated by the formula: Rn═[(A−Ba−C×D)/(D−Bd)]×(Dc−Bd) • Where A is the fluorescence intensity of the sample at 665 nm, • D is the fluorescence intensity of the sample at 615 nm, • Ba and Bd are plate backgrounds at 665 nm and 615 nm, respectively, • Dc is the fluorescence intensity of 0.78 nM Eu-SA in the assay buffer at 615 nm • The cross-talk factor (C) is determined by the following formula: C=(Ac−Ba)/(Dc−Bd) • Where Ac is the fluorescence intensity of 0.78 nM Eu-SA in the assay buffer at 665 nm.
IC50 values were calculated using xLFit program (IDBS).

T1 sequence (P06730 28-217): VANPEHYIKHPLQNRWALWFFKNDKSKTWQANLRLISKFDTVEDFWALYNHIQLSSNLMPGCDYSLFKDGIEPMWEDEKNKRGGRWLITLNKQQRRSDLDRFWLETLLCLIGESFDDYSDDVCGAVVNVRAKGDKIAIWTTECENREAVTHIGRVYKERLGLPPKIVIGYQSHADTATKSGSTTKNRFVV

## O=C(O)C1CN(c2nc(-c3ccc(-c4cnco4)cc3)c(-c3ccccc3)s2)CCO1 (centres unmarked) [Compound I-56]
  IC50: > 25 µM

## O=C(O)C1(CNc2nc(-c3ccc(-c4ccc(F)cc4)cc3)c(Br)s2)CC1 [Compound I-121]
  IC50: 5 to 25 µM

## CC(C)(CNc1nc(-c2ccc(-c3cnco3)cc2)c(-c2cncnc2)s1)C(=O)O [Compound I-6]
  IC50: > 25 µM

## O=C(O)CC1CCCN1c1nc(-c2ccc(-c3ccc(F)cc3)cc2)c(-c2cccc3[nH]ccc23)s1 (centres unmarked) [Compound I-114]
  IC50: < 5 µM

## CCCC(CNc1nc(-c2ccc(-c3cnco3)cc2)c(-c2ccccc2)s1)C(=O)O (centres unmarked) [Compound I-18]
  IC50: 5 to 25 µM

## CC(CNc1nc(-c2ccc(Oc3ccccc3)cc2)c(-c2ccccc2)s1)C(=O)O (centres unmarked) [Compound I-177]
  IC50: 5 to 25 µM

## CC1(C(=O)O)CN(c2nc(-c3ccc(Oc4ccccc4)cc3)c(-c3cncnc3)s2)C1 [Compound I-164]
  IC50: > 25 µM

## CC(CNc1nc(-c2ccc(-c3ccc(F)cc3)cc2)c(-c2cccc3[nH]ccc23)s1)C(=O)O (centres unmarked) [Compound I-104]
  IC50: 5 to 25 µM

## O=C(O)C1(CNc2nc(-c3ccc(-c4cnco4)cc3)c(-c3cccc4[nH]ccc34)s2)CC1 [Compound I-47]
  IC50: > 25 µM

## CC(C)C(CC(=O)O)Nc1nc(-c2ccc(-c3ccc(F)cc3)cc2)c(-c2cccc3[nH]ccc23)s1 (centres unmarked) [Compound I-69]
  IC50: 5 to 25 µM

## O=C(O)C1(CNc2nc(-c3ccc(Oc4ccccc4)cc3)cs2)CC1 [Compound I-195]
  IC50: > 25 µM

## O=C(O)C1CN(c2nc(-c3ccc(-c4ccc(F)cc4)cc3)c(-c3cccnc3)s2)CCO1 (centres unmarked) [Compound I-142]
  IC50: > 25 µM

## CC1(C(=O)O)CN(c2nc(-c3ccc(-c4ccc(F)cc4)cc3)c(-c3cccnc3)s2)C1 [Compound I-85]
  IC50: > 25 µM

## O=C(O)C1CCCN(c2nc(-c3ccc(-c4ccc(F)cc4)cc3)c(-c3cccc4[nH]ccc34)s2)C1 (centres unmarked) [Compound I-109]
  IC50: < 5 µM

## CCCC(CNc1nc(-c2ccc(Oc3ccccc3)cc2)c(-c2cncnc2)s1)C(=O)O (centres unmarked) [Compound I-169]
  IC50: > 25 µM

## O=C(O)C1CN(c2nc(-c3ccccc3)c(-c3ccc(-c4ccc(F)cc4)cc3)s2)CCO1 (centres unmarked) [Compound I-240, 4-(5-(4′-fluorobiphenyl-4-yl)-4-phenylthiazol-2-yl) morpholine-2-carboxylic acid]
  IC50: < 5 µM

## O=C(O)C1CN(c2nc(-c3ccc(-c4ccc(F)cc4)cc3)cs2)C1 [Compound I-76]
  IC50: > 25 µM

## O=C(O)CC1CCCN1c1nc(-c2ccc(-c3ccc(F)cc3)cc2)cs1 (centres unmarked) [Compound I-110]
  IC50: > 25 µM

## CC1(C(=O)O)CN(c2nc(-c3ccc(-c4ccc(F)cc4)cc3)c(-c3ccccc3)s2)C1 [Compound I-83]
  IC50: < 5 µM

## CC(CNc1nc(-c2ccc(-c3ccc(F)cc3)cc2)c(Br)s1)C(=O)O (centres unmarked) [Compound I-100]
  IC50: 5 to 25 µM

## O=C(O)C1CCN(c2nc(-c3ccc(-c4ccc(F)cc4)cc3)cs2)C1 (centres unmarked) [Compound I-115]
  IC50: > 25 µM

## O=C(O)C1CCN(c2nc(-c3ccc(Oc4ccccc4)cc3)c(-c3cncnc3)s2)C1 (centres unmarked) [Compound I-192]
  IC50: > 25 µM

## CC(CC(=O)O)Nc1nc(-c2ccc(-c3cnco3)cc2)c(-c2cccc3[nH]ccc23)s1 (centres unmarked) [Compound I-25]
  IC50: > 25 µM

## O=C(O)C1CCCN(c2nc(-c3ccc(-c4ccc(F)cc4)cc3)c(C(F)(F)F)s2)C1 (centres unmarked) [Compound I-233]
  IC50: < 5 µM

## O=C(O)C1CCN(c2nc(-c3ccc(-c4ccc(F)cc4)cc3)c(-c3cccnc3)s2)C1 (centres unmarked) [Compound I-118]
  IC50: > 25 µM

## O=C(O)C1CN(c2nc(-c3ccc(-c4ccc(F)cc4)cc3)c(C(F)(F)F)s2)CCO1 (centres unmarked) [Compound I-239]
  IC50: 5 to 25 µM

## O=C(O)C1CN(c2nc(-c3ccc(Oc4ccccc4)cc3)c(-c3cccc4[nH]ccc34)s2)CCO1 (centres unmarked) [Compound I-216]
  IC50: > 25 µM

## O=C(O)C1CN(c2nc(-c3ccc(-c4cnco4)cc3)c(-c3ccccc3)s2)C1 [Compound I-9]
  IC50: > 25 µM

## CC(CC(=O)O)Nc1nc(-c2ccc(-c3ccc(F)cc3)cc2)c(-c2cccnc2)s1 (centres unmarked) [Compound I-97]
  IC50: > 25 µM

## O=C(O)C1CN(c2nc(-c3ccc(-c4cnco4)cc3)c(-c3cncnc3)s2)CCO1 (centres unmarked) [Compound I-57]
  IC50: > 25 µM

## Cc1sc(N2CCOC(C(=O)O)C2)nc1-c1ccc(-c2ccc(F)cc2)cc1 (centres unmarked) [Compound I-236, 4-(4-(4′-fluorobiphenyl-4-yl)-5-methylthiazol-2-yl) morpholine-2-carboxylic acid]
  IC50: 5 to 25 µM

## O=C(O)C1COCCN1c1nc(-c2ccc(-c3ccc(F)cc3)cc2)c(-c2ccccc2)s1 (centres unmarked) [Compound I-231]
  IC50: < 5 µM

## CC(C)(CNc1nc(-c2ccc(Oc3ccccc3)cc2)c(-c2cncnc2)s1)C(=O)O [Compound I-155]
  IC50: > 25 µM

## CC1(C(=O)O)CCCN(c2nc(-c3ccc(-c4ccc(F)cc4)cc3)c(-c3cncnc3)s2)C1 (centres unmarked) [Compound I-145]
  IC50: > 25 µM

## O=C(O)C1CN(c2nc(-c3ccc(-c4cnco4)cc3)c(-c3cccc4[nH]ccc34)s2)CCO1 (centres unmarked) [Compound I-59]
  IC50: > 25 µM

## CCCC(CNc1nc(-c2cncnc2)c(-c2ccc(-c3cnco3)cc2)s1)C(=O)O (centres unmarked) [Compound I-19]
  IC50: > 25 µM

## CC1(C(=O)O)CCCN(c2nc(-c3ccc(-c4cnco4)cc3)c(-c3cccc4[nH]ccc34)s2)C1 (centres unmarked) [Compound I-63]
  IC50: > 25 µM

## CC(C)(CNc1nc(-c2ccc(-c3cnco3)cc2)c(-c2ccccc2)s1)C(=O)O [Compound I-5]
  IC50: > 25 µM

## CC(CNc1nc(-c2ccc(-c3cnco3)cc2)c(-c2cccnc2)s1)C(=O)O (centres unmarked) [Compound I-29]
  IC50: > 25 µM

## Cc1nc(N2CCCC(C(=O)O)C2)sc1-c1ccc(-c2ccc(F)cc2)cc1 (centres unmarked) [Compound I-238]
  IC50: 5 to 25 µM

## O=C(O)C1CCN(c2nc(-c3ccc(-c4cnco4)cc3)c(-c3cncnc3)s2)CC1 [Compound I-53]
  IC50: > 25 µM

## O=C(O)C1CCN(c2nc(-c3ccc(-c4ccc(F)cc4)cc3)c(-c3cccc4[nH]ccc34)s2)C1 (centres unmarked) [Compound I-119]
  IC50: 5 to 25 µM

## O=C(O)C1CCCN(c2nc(-c3ccc(-c4cnco4)cc3)c(-c3ccccc3)s2)C1 (centres unmarked) [Compound I-31]
  IC50: > 25 µM

## CC(CNc1nc(-c2ccc(Oc3ccccc3)cc2)cs1)C(=O)O (centres unmarked) [Compound I-176]
  IC50: > 25 µM

## CCCC(CNc1nc(-c2ccc(-c3ccc(F)cc3)cc2)c(-c2cccc3[nH]ccc23)s1)C(=O)O (centres unmarked) [Compound I-92]
  IC50: 5 to 25 µM

## CC(CC(=O)O)Nc1nc(-c2ccc(-c3cnco3)cc2)c(-c2cccnc2)s1 (centres unmarked) [Compound I-24]
  IC50: > 25 µM

## CC(C)C(CC(=O)O)Nc1nc(-c2ccc(-c3ccc(F)cc3)cc2)c(-c2ccccc2)s1 (centres unmarked) [Compound I-66]
  IC50: < 5 µM

## CC1(C(=O)O)CN(c2nc(-c3ccc(-c4ccc(F)cc4)nc3)c(-c3cncnc3)s2)C1 [Compound I-84]
  IC50: > 25 µM

## CC(C)(CNc1nc(-c2ccc(-c3ccc(F)cc3)cc2)c(-c2ccccc2)s1)C(=O)O [Compound I-72]
  IC50: < 5 µM

## CC(C)[C@@H](CC(=O)O)Nc1nc(-c2ccc(-c3ccc(F)cc3)cc2)c(Br)s1 [Compound I-221]
  IC50: < 5 µM

## O=C(O)C1CCN(c2nc(-c3ccc(-c4cnco4)cc3)c(-c3cncnc3)s2)C1 (centres unmarked) [Compound I-41]
  IC50: > 25 µM

## O=C(O)C1CCCN(c2nc(-c3ccc(-c4ccc(F)cc4)cc3)c(C3CC3)s2)C1 (centres unmarked) [Compound I-232]
  IC50: < 5 µM

## CC1(C(=O)O)CCCN(c2nc(-c3ccc(Oc4ccccc4)cc3)c(-c3cncnc3)s2)C1 (centres unmarked) [Compound I-218]
  IC50: > 25 µM

## O=C(O)C1CCN(c2nc(-c3ccc(-c4ccc(F)cc4)cc3)c(-c3cncnc3)s2)C1 (centres unmarked) [Compound I-117]
  IC50: > 25 µM

## CC(C)C(CC(=O)O)Nc1nc(-c2ccc(Oc3ccccc3)cc2)cs1 (centres unmarked) [Compound I-148]
  IC50: > 25 µM

## O=C(O)C1CCN(c2nc(-c3ccc(Oc4ccccc4)cc3)cs2)C1 (centres unmarked) [Compound I-190]
  IC50: > 25 µM

## O=C(O)C1CN(c2nc(-c3ccc(-c4ccc(F)cc4)cc3)c(-c3cncnc3)s2)CCO1 (centres unmarked) [Compound I-141]
  IC50: > 25 µM

## O=C(O)C1CCN(c2nc(-c3ccc(Oc4ccccc4)cc3)c(-c3cccc4[nH]ccc34)s2)CC1 [Compound I-212]
  IC50: 5 to 25 µM

## O=C(O)CC1CCCN1c1nc(-c2ccc(-c3cnco3)cc2)cs1 (centres unmarked) [Compound I-35]
  IC50: > 25 µM

Source: patent US12030875B2, “EIF4E inhibitors and uses thereof” (PIC Therapeutics, Inc., priority 2018, dated 2024)
